Data set [1] relates to MV-4-11 AML cell line xenografts. The experiment in a line: Efficacy study in MV-4-11 xenograft model. Type of data set: in vivo, Balb/c nude mice. The settings on record: 37.5 and 50 mg/kg. The method, then: (§1) MDA‐MB‐468 (5 × 10^6), NCI‐H1048 (5 × 10^6), or MV‐4‐11 (2 × 10^6) cells in Matrigel were subcutaneously inoculated into the left flanks of Balb/c nude mice (7‐ to 8‐week‐old females). When xenografted tumors grew to a sufficient volume, the tumor diameter was measured and its volume was calculated as follows:
(§2) Tumor volume=long diameter×short diameter×short diameter×(1/2)
(§3) Mice having a tumor of size approximately 200 mm^3 were used in efficacy or in vivo pharmacodynamics studies. T‐025 was dissolved in 0.5% methylcellulose solution. For the efficacy study, after randomized grouping, mice were treated with T‐025 twice daily once or twice weekly for 2 or 3 weeks. The mouse tumor volume and body weight were measured every 2–3 days.

The subject of data set [2] is other kinases. The experiment in a line: KINOMEScan-based kinase selectivity assay, kinases other than CLK/DYRK1. The format is binding. Here is the method: The KINOMEScan‐based kinase selectivity assay was performed at the DiscoverX Corporation (Fremont, CA, USA). The panel of growth inhibition assay and subsequent bioinformatics analysis (Fig EV1) were performed at Eurofins Inc. (St. Charles, MO, USA), using OncoPanel 240 or 60. Details of the procedures of cell proliferation assay, caspase‐3/7 activity assay, immunoblotting, and immunohistochemistry are described in Appendix Supplementary Methods.

Data set [3] has as its system xenografts derived from AML patient (PDX). The experiment in a line: Efficacy study in patient-derived xenograft model of acute myeloid leukemia. Type of data set: in vivo, NOG mice. The settings on record: 25 and 50 mg/kg, twice daily at twice weekly.
Source text: To establish the patient‐derived xenograft model, a small piece of tumor purchased from Dr. Naoe at Nagoya University was subcutaneously inoculated into NOG mice (7‐ to 8‐week‐old females, CIEA Japan, Inc., Kanagawa, Japan). After three rounds of in vivo propagation, tumors were used for efficacy assessment.
as §2, §3

In data set [4] the test system is NCI-H1048. The experiment in a line: Cell proliferation assay (CellTiter-Glo). Type of data set: cell-based. Conditions: Homo sapiens, 72 h treatment, lung cancer, read-out: IC50 (growth inhibition). Here is the method:
(§4) Cell proliferation assay, Caspase-3/7 assay
(§5) Cell proliferation was measured using CellTiter-Glo luminescent cell viability
(§6) assay (Promega, Fitchburg, WI, U.S.A.). Caspase-3/7 activity was measured using
(§7) Caspase-Glo 3/7 Assay Systems (Promega). Luminescence of each well was measured
(§8) using ARVO Light (PerkinElmer Inc., Waltham, MA, U.S.A.). The IC50 value and 95%
(§9) confidential intervals were estimated using GraphPad Prism 5 (GraphPad Software,
(§10) Inc., La Jolla, CA, U.S.A.). […]
In general terms: In ATP-based viability assays light output follows the ATP content of the culture.

Data set [5] deals with BJ. The experiment in a line: Cell proliferation assay (CellTiter-Glo). Conditions: Homo sapiens, 72 h treatment, normal skin fibroblast, read-out: IC50 (growth inhibition). The format is cell-based. The method, then: as §4, §5, §6, §7, §8, §9, §10
The subject of data set [6] is COLO320HSR. The data set can be described thus: Cell proliferation assay (CellTiter-Glo). The format is cell-based. The settings on record: Homo sapiens, COLO-320-HSR; 72 h treatment; colorectal cancer; read-out: IC50 (growth inhibition). The method, then:
as §4, §5, §6, §7, §8, §9, §10

Data set [7] concerns 786-O. The experiment in a line: Cell proliferation assay (CellTiter-Glo). Type of data set: cell-based. Conditions: Homo sapiens, 786-0; 72 h treatment; kidney cancer; read-out: IC50 (growth inhibition). Here is the method: as §4, §5, §6, §7, §8, §9, §10
For data set [8], the system named is MDA-MB-468. The experiment in a line: Cell proliferation assay (CellTiter-Glo). The format is cell-based. The settings on record: Homo sapiens, 72 h treatment, breast cancer, read-out: IC50 (growth inhibition). The method, then: as §4, §5, §6, §7, §8, §9, §10
For data set [9], the system named is Wi38. The experiment in a line: Cell proliferation assay (CellTiter-Glo). Type of data set: cell-based. The settings on record: Homo sapiens, WI-38; 72 h treatment; normal lung fibroblast; read-out: IC50 (growth inhibition). Here is the method: as §4, §5, §6, §7, §8, §9, §10
Data set [10] deals with NCI-H1048 xenografts. The data set can be described thus: Efficacy study in NCI-H1048 xenograft model. Conditions: 50 mg/kg, twice weekly regimen. The format is in vivo, Balb/c nude mice. Here is the method: as §1, §2, §3
The test system of data set [11] is MDA-MB-468 xenograft. The experiment in a line: Efficacy study in MDA-MB-468 xenograft model. Type of data set: in vivo, Balb/c nude mice. Conditions: 50 mg/kg oral, twice daily on 2 days per week. Here is the method:
When xenografted tumors grew to a sufficient volume, the tumor diameter was measured and its volume was calculated as follows:
as §2, §3

Data set [12] deals with HIPK2 (Homo sapiens, UniProt Q9H2X6). The experiment in a line: Immunoblotting of pS46 p53, direct phosphorylation site of HIPK2, in cells. The settings on record: up to 1000 nmol/L; immunoblot from Fig 2A samples (MDA-MB-468, 6 h). The format is cell-based. The text has this: EMBO Molecular Medicine - Peer Review Process File
PRS6KB1 was observed by RNAi of CLK2 and T-025.
It had already been reported that ASs induced by […]
that T-025 and depletion of CLKs caused a similar splicing effect.
Furthermore, T3, another CLK […]
and increased MYC-dependent vulnerability (Fig EV4). […]
phosphorylation, at a direct phosphorylation site of HIPK2, up to 1000 nmol/L (see below, from Fig.
In quantifying the bands of pCLK2, the background of this immunoblotting around 50 kDa was relatively high and the band was shifted in the T-025 treated samples (below); thus, we could not […]
BF is undefined and ∆PSI is not clearly defined. If ∆PSI is really "percentage splice-in", none of the effects is significant. The normalization of ∆PSI is unclear. In Figure 2E, the difference between […]
According to the MISO software, the Bayer Factor (BF) represents the weight of the evidence in the data in favor of differential expression versus the weight of evidence not in favor. For example, a © European Molecular Biology Organization 13 […]

Sequence of HIPK2 (Q9H2X6 whole entry): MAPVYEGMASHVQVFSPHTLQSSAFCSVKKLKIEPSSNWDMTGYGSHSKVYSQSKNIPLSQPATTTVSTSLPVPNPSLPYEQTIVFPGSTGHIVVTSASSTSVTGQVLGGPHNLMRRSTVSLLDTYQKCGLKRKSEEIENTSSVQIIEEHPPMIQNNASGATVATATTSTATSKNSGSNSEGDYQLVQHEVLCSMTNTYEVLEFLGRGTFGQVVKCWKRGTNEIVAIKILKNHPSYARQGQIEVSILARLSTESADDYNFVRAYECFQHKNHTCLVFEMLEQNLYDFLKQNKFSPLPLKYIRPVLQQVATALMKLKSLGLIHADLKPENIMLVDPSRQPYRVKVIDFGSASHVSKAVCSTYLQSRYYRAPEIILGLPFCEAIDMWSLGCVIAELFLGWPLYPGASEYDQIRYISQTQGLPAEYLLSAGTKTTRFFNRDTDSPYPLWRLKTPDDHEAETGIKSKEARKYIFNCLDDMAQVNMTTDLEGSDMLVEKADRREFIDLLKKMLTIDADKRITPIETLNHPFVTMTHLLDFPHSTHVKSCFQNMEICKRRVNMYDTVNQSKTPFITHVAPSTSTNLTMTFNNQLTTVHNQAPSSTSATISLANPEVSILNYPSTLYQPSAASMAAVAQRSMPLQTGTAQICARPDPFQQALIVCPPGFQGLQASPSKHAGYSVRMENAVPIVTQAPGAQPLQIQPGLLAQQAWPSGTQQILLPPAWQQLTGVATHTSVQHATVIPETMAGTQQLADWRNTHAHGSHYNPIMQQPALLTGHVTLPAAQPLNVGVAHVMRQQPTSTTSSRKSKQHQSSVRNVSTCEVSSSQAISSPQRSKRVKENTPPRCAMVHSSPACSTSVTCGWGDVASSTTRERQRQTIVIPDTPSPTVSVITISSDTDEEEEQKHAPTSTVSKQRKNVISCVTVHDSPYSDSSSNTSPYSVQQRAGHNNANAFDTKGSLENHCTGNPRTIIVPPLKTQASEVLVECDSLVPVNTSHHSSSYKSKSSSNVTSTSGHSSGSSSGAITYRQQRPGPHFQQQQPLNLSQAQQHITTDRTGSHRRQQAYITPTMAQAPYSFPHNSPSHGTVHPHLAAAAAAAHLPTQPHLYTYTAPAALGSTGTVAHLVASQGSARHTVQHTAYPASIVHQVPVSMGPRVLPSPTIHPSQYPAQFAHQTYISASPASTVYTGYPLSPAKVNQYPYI

As to `CNc1nc(NCc2ncccn2)c2c(-c3ccc4ncccc4c3)c[nH]c2n1` [T-025, N ^2‐methyl‐N ^4‐[pyrimidin‐2‐ylmethyl]‐5‐[quinolin‐6‐yl]‐7H‐pyrrolo[2,3‐d]pyrimidine‐2,4‐diamine], the “anti-tumor efficacy, tumor volume” value is reported as “profound anti‐tumor efficacies” in [1], “profound anti‐tumor efficacies” in [3] and “exhibited in vivo anti‐tumor efficacy” in data set [10]. Moreover, the “selectivity for CLK/DYRK1 over other kinases” value in data set [2] is on record as more than 300 fold. The equilibrium dissociation constant (Kd) (as a rule, the free concentration of one partner at which half of the binding sites on the other are occupied at equilibrium, for simple one-to-one binding) in [2] (no other kinase had Kd < 30, read-out: Kd of other kinases outside of CLK and DYRK1 family) is not below 30 nM. Besides, the IC50 (as a rule, the midpoint of a concentration-inhibition curve) in data set [4] is 84.4 nM; in [5], 355 nM; in data set [6], 91.8 nM; in [7], 340 nM; in data set [8], 79.8 nM; in data set [9] it was 257 nM. Moreover, the body weight loss result in data set [10] is listed as “no significant body weight loss”. Also, the “nadir body weight loss” value in data set [11] (3 weeks, near the maximum tolerated dose) is on record as less than 10%. Moreover, in data set [11] (end of 3-week treatment cycle), the “anti-tumor effect, tumor volume” value is reported as “tumor volumes had shrunk relative to the initial volumes”. For the same compound, in data set [12], the “inhibition of HIPK2 in cells (pS46 p53 phosphorylation)” value is “did not inhibit HIPK2”.

The values are drawn from PMC5991599, “Anti‐tumor efficacy of a novel CLK inhibitor via targeting RNA splicing and MYC‐dependent vulnerability” (EMBO Molecular Medicine, 2018).
